The text below walks through data of ChEMBL document CHEMBL3232866, “Design of novel potent antihyperlipidemic agents with antioxidant/anti-inflammatory properties: exploiting phenothiazine's strong antioxidant activity” (J Med Chem, 2014).

A short description of test [1]: Antioxidant activity in rat liver microsome membrane assessed as inhibition of lipid peroxidation after 45 mins by TBARS-based spectrophotometric assay. It counts as functional, microsomes.
The test system of test [2] is Rattus norvegicus. In words: In vivo antidyslipidemic activity against Triton WR 1339-induced hyperlipidemic Wistar rat model assessed as decrease in triglyceride level in plasma at 56 umol/kg, ip administered as single dose 1 hr after Triton WR 1339 challenge measured after 24 hrs. It counts as functional.
The test system of test [3] is Radical scavenging activity. As to the kind of experiment: Antioxidant activity assessed as DPPH radical scavenging activity after 30 mins. It counts as functional.
In test [4] the test system is Rattus norvegicus. As to the kind of experiment: In vivo antidyslipidemic activity against Triton WR 1339-induced hyperlipidemic Wistar rat model assessed as decrease in LDL-cholesterol level in plasma at 56 umol/kg, ip administered as single dose 1 hr after Triton WR 1339 challenge measured after 24 hrs. It counts as functional.
Test [5] concerns Rattus norvegicus. In words: In vivo antidyslipidemic activity against Triton WR 1339-induced hyperlipidemic Wistar rat model assessed as decrease in total cholesterol level in plasma at 56 umol/kg, ip administered as single dose 1 hr after Triton WR 1339 challenge measured after 24 hrs. It counts as functional.
Test [6] addresses T1, Prostaglandin G/H synthase 1 (Bos taurus) (UniProt O62664).
T1 sequence (whole entry): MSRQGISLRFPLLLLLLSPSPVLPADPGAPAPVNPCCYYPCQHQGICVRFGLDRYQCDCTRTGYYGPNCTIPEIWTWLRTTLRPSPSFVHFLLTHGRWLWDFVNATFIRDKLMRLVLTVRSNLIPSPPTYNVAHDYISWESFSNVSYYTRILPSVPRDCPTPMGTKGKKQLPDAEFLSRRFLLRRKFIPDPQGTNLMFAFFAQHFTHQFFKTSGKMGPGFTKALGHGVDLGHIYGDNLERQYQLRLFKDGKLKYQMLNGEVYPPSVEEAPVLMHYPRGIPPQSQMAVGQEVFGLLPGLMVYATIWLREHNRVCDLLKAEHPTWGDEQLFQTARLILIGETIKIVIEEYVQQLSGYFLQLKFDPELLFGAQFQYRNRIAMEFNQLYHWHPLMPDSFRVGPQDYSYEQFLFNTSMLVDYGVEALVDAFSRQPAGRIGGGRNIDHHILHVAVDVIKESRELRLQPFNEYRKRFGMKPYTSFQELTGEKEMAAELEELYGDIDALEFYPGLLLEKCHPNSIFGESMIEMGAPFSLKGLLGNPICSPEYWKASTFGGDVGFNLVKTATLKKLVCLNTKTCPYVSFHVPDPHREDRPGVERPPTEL
In words: Inhibition of bovine COX-1 assessed as PGF2-alpha formation using arachidonic acid as substrate at 20 uM by enzyme immunoassay.

Test [7] has as its target T2, Squalene synthase (Rattus norvegicus, UniProt Q02769).
T2 sequence (Q02769 whole entry): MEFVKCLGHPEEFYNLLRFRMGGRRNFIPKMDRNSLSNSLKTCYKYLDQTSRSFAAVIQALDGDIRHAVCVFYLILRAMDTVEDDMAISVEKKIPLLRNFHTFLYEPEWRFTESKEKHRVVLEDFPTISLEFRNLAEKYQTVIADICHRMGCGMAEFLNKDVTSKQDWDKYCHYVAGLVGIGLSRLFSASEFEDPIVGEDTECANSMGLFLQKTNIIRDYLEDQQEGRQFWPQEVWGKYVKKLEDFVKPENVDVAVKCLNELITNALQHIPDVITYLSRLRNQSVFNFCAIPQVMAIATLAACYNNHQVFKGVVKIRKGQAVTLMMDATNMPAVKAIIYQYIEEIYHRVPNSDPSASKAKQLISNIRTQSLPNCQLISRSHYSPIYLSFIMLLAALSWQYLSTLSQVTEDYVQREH
In words: (§1) Inhibition of squalene synthase in rat liver microsomes assessed as decrease in conversion of [3H]FPP to squalene.

The target in test [8] is T3, Squalene synthase (Rattus norvegicus) (UniProt Q02769).
T3 sequence (whole entry): T2 sequence (Q02769 whole entry)
The description is as §1.

Test [9] relates to Radical scavenging activity. As to the kind of experiment: Antioxidant activity assessed as DPPH radical scavenging activity up to 50 uM measured within 15 mins. It is filed as functional.
The species named for test [10] is Homo sapiens. In words: Antioxidant activity against CuSO4-induced human LDL oxidation assessed as increase in lag time at 1 uM by spectrophotometric analysis. It is filed as functional.
The species entered for test [11] is Homo sapiens. As to the kind of experiment: Antioxidant activity against CuSO4-induced human LDL oxidation assessed as delta-lag time at 0.50 uM by spectrophotometric analysis. It counts as functional.
For test [12], the species on record is Homo sapiens. As to the kind of experiment: Antioxidant activity against CuSO4-induced human LDL oxidation assessed as lag time at 0.50 uM by spectrophotometric analysis (reference value: 113 mins). It is filed as functional.
Test [13] relates to Glycine max. As to the kind of experiment: Inhibition of soybean lipoxygenase using sodium linoleate as substrate up to 100 uM measured for 6 mins.
For test [14], the species on record is Homo sapiens. In words: Antioxidant activity against CuSO4-induced human LDL oxidation assessed as inhibition of rate of conjugate diene formation at 0.25 uM by spectrophotometric analysis. It is filed as functional.
Test [15] is filed under the species Homo sapiens. In words: Antioxidant activity against CuSO4-induced human LDL oxidation assessed as lag time at 0.25 uM by spectrophotometric analysis (reference value: 113 mins). It counts as functional.
The species entered for test [16] is Homo sapiens. As to the kind of experiment: Antioxidant activity against CuSO4-induced human LDL oxidation assessed as inhibition of rate of conjugate diene formation at 1 uM by spectrophotometric analysis. It counts as functional.
The species entered for test [17] is Homo sapiens. As to the kind of experiment: Antioxidant activity against CuSO4-induced human LDL oxidation assessed as prolongation of lag time by spectrophotometric analysis. It counts as functional.
The species entered for test [18] is Homo sapiens. As to the kind of experiment: Antioxidant activity against CuSO4-induced human LDL oxidation assessed as delta-lag time at 0.25 uM by spectrophotometric analysis. It is filed as functional.
The species entered for test [19] is Homo sapiens. As to the kind of experiment: Antioxidant activity against CuSO4-induced human LDL oxidation assessed as increase in lag time at 0.50 uM by spectrophotometric analysis. It counts as functional.
The species named for test [20] is Homo sapiens. In words: Antioxidant activity against CuSO4-induced human LDL oxidation assessed as inhibition of rate of conjugate diene formation at 0.50 uM by spectrophotometric analysis. It counts as functional.
The species entered for test [21] is Homo sapiens. As to the kind of experiment: Antioxidant activity against CuSO4-induced human LDL oxidation assessed as increase in lag time at 0.25 uM by spectrophotometric analysis. It counts as functional.
The subject of test [22] is Mus musculus. As to the kind of experiment: In vivo antiinflammatory activity in mouse assessed as decrease in carrageenan-induced paw edema at 0.30 mmol/kg, ip administered immediately after carrageenan injection measured after 3.5 hrs. It is filed as functional.
Test [23] in a line: Inhibition of soybean lipoxygenase using sodium linoleate as substrate measured for 6 mins.

Calls of active or inactive are those of the source. No cut-off for these calls is given here.

`CN1CC(O)(c2ccc(-c3ccccc3)cc2)OC2CCCCC21` (configuration not stated): the results for the half-maximal inhibitory concentration (IC50) in test [1] and in [3] were 450 µM and > 400 µM, respectively. Also, the inhibition in vivo at 56 µmol/kg in test [2] came to 49%; in test [4] it was 51%; in test [5], 54%.

Turning to `CN1CC(O)(c2ccc(-c3ccccc3)cc2)Oc2ccccc21` (configuration not stated), the 50% inhibitory concentration (IC50) in [1] stood at 9 µM; in test [3], 119 µM. The inhibition in vivo at 56 µmol/kg in test [2] worked out at 73%; in test [4] it was 74%; in [5] it was 62%. The inhibition in [6] is 36%.

On to `CN1CC(O)(c2ccc(-c3ccccc3)cc2)Sc2ccccc21` (configuration not stated), for which the IC50 in test [1] was 83 µM; in [3], 271 µM. The figures for the inhibition in vivo at 56 µmol/kg in test [2], in test [4] and in [5] were 38%, 26% and 58%, respectively. Besides, in test [6], the inhibition amounted to 90%.

For `CN1CC(O)(c2ccc3c(c2)Nc2ccccc2S3)Oc2ccccc21` (configuration not stated), the half-inhibitory concentration (IC50) in test [1] was 1.6 µM; in [3], 337 µM; in test [7], 3.3 µM. In test [8], the inhibition result is “Dose-dependent effect”. In test [9], the outcome was Active.

For `CC1=CSC(O)(c2ccc3c(c2)Nc2ccccc2S3)CN1C=O` (configuration not stated), the IC50 in test [1] is 0.33 µM; in test [3], 150 µM; in test [7], > 50 µM. The outcome in test [9] was Active.

With `OC1(c2ccc3c(c2)Nc2ccccc2S3)CN2CCCCC2CO1` (racemic), the Activity in [10] is 100%; in [17], “Dose-dependent effect”; in test [19], 80%; in [21] it was 35%. Also, the TIME in test [11] is 1.5 h; in test [12], 3.38 h; in test [15] it was 2.53 h; in test [18] it was 0.65 h. In addition, the IC50 in test [1] was determined as 0.55 µM; in test [3] it was 184 µM; in [7], 2.7 µM. Further, the inhibition entry in test [13] is “inactive”. Moreover, the inhibition in vivo at 56 µmol/kg came to 63% in [2], 58% in test [4] and 36% in test [5]. The inhibition in test [14] was 0%; in [6] it was 55%; in test [8], “Dose-dependent effect”; in test [16] it was 100%; in test [20], 20%. The result in [9] was Active.

Turning to `CN1CCOC(O)(c2ccc3c(c2)N(C)c2ccccc2S3)C1` (racemic), the results for the IC50 in test [1], in [3] and in test [7] were 70.2 µM, > 400 µM and 3.6 µM, respectively. Further, the inhibition result in [13] was “inactive”. The inhibition in [6] is 17%; in [8], “Dose-dependent effect”.

As to `CN1c2ccccc2Sc2ccc(C3(O)CN4CCCCC4CO3)cc21` (racemic), the IC50 in test [1] is 68 µM; in test [3], > 400 µM; in test [7], 2.3 µM. In addition, the inhibition entry in test [13] was “inactive”. The values for the inhibition in vivo at 56 µmol/kg in test [2], in test [4] and in test [5] were 71%, 26% and 55%, respectively. The inhibition result in test [8] was “Dose-dependent effect”.

For `CN1c2ccccc2Sc2ccc(C3(O)CN(C)C4CCCCC4O3)cc21` (racemic), the 50% inhibitory concentration (IC50) in [1] is 57 µM; in [3], > 400 µM; in test [7], 4.7 µM. Moreover, the inhibition entry in [13] was “inactive”. For the same compound, the inhibition in vivo at 56 µmol/kg in test [2] was determined as 27%; in [4], 34%; in test [5] it was 26%. In test [8], the inhibition entry was “Dose-dependent effect”.

With `CC(=O)N1c2ccccc2Sc2ccc(C3(O)CN(C)CCO3)cc21` (racemic), the half-maximal inhibitory concentration (IC50) is 36 µM in [1], > 400 µM in [3] and 25.3 µM in test [7]. The inhibition entry in test [13] is “inactive”. The inhibition in vivo at 56 µmol/kg in test [2] turned out to be 76%; in [4] it was 48%; in test [5] it was 63%. Moreover, the inhibition entry in test [8] is “Dose-dependent effect”.

With `CC(=O)N1c2ccccc2Sc2ccc(C3(O)CN4CCCCC4CO3)cc21` (racemic), the half-maximal inhibitory concentration (IC50) is 12 µM in test [1], > 400 µM in test [3] and 16.4 µM in [7]. Further, in test [13], the inhibition result was “inactive”. In addition, the inhibition result in test [8] is “Dose-dependent effect”.

With `CC(=O)N1c2ccccc2Sc2ccc(C3(O)CN(C)C4CCCCC4O3)cc21` (racemic), the 50% inhibitory concentration (IC50) was 14 µM in test [1], > 400 µM in [3] and 1.6 µM in test [7]. Moreover, the inhibition entry in [13] is “inactive”. Moreover, the inhibition entry in [8] was “Dose-dependent effect”.

On to `COc1ccc2c(c1)c(CC(=O)O)c(C)n2C(=O)c1ccc(Cl)cc1` [INDOMETHACIN], for which the inhibition in vivo at 300 µmol/kg in test [22] came to 54%. Moreover, the inhibition in test [6] was 100%.

Turning to `COc1ccc2cc([C@H](C)C(=O)O)ccc2c1` [NAPROXEN], the inhibition in vivo at 300 µmol/kg in test [22] worked out at 51%. In addition, in [6], the inhibition amounted to 30%. The IC50 in test [23] was 24 µM.

As for `CC(C)(Sc1cc(C(C)(C)C)c(O)c(C(C)(C)C)c1)Sc1cc(C(C)(C)C)c(O)c(C(C)(C)C)c1` [PROBUCOL], the IC50 in test [1] was > 1000 µM; in test [3] it was 234 µM. Besides, the inhibition in vivo at 56 µmol/kg was 11% in test [2], 18% in test [4] and 18% in [5].

Turning to `O=c1c(O)c(-c2ccc(O)c(O)c2)oc2cc(O)cc(O)c12` [QUERCETIN], the figures for the 50% inhibitory concentration (IC50) in test [1] and in test [3] were 20 µM and 96 µM, respectively.

Turning to `CCC(C)(C)C(=O)O[C@H]1C[C@@H](C)C=C2C=C[C@H](C)[C@H](CC[C@@H]3C[C@@H](O)CC(=O)O3)[C@H]21` [SIMVASTATIN], the inhibition in vivo at 56 µmol/kg in test [2] was found to be 0%; in test [4], 70%; in test [5], 75%.
